Legend:
[1] = molecular target: Dihydroorotate dehydrogenase (quinone), mitochondrial (Homo sapiens, UniProt Q02127)
Plasmodium falciparum = test: microbe, parasite or virus in culture; conditions: 3D7, 72 h
[2] = Inhibition of N-terminal His6-tagged Plasmodium falciparum DHODH expressed in Escherichia coli BL21(DE3) cells using L-DHO as substrate by DCIP dye based assay

Chain of Dihydroorotate dehydrogenase (quinone), mitochondrial (Q02127 whole entry): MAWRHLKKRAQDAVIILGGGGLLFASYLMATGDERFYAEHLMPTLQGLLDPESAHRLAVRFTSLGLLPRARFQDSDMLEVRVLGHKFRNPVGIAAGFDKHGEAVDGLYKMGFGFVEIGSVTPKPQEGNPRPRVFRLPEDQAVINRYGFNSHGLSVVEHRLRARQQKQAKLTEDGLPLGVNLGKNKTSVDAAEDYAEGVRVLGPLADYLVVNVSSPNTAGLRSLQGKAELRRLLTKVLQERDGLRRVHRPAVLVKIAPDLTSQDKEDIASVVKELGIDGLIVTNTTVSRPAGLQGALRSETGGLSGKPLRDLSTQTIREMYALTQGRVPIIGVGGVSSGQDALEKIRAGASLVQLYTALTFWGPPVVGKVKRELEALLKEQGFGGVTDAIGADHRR

## Cc1c(Cc2ccc(C(F)(F)F)nc2)c[nH]c1C(=O)C1CC1
[1]
  IC50: > 100 µM
Plasmodium falciparum
  EC50: 0.0099 µM
[2]
  IC50: 0.018 µM

## CCN(CC)C(=O)c1[nH]c(C)c(Cc2ccc(C(F)(F)F)nc2)c1C
Plasmodium falciparum
  EC50: > 10 µM
[2]
  IC50: 13 µM

## Cc1c(Cc2ccc(C(F)(F)F)nc2)c[nH]c1C(=O)N1CCCC1
Plasmodium falciparum
  EC50: 4.8 µM
[2]
  IC50: 9.8 µM

## Cc1[nH]c(C(=O)NC(C)(C)C)cc1Cc1ccc(C(F)(F)F)nc1
Plasmodium falciparum
  EC50: 3.5 µM
[2]
  IC50: 5.7 µM

## COc1cc(C(F)(F)F)ccc1Cc1c[nH]c(C(=O)NC2CC2)c1C
[1]
  IC50: > 100 µM
Plasmodium falciparum
  EC50: 0.26 µM
[2]
  IC50: 0.11 µM

## Cc1c(Cc2ccc(C(F)(F)F)nc2)c[nH]c1C(=O)NS(C)(=O)=O
Plasmodium falciparum
  EC50: > 100 µM
[2]
  IC50: > 100 µM

## Cc1[nH]c(C(=O)NC2CCOCC2)cc1Cc1ccc(C(F)(F)F)nc1
Plasmodium falciparum
  EC50: > 10 µM
[2]
  IC50: > 100 µM

## CCOC(=O)c1[nH]c(C)c(C(=O)c2ccc(C(F)(F)F)cn2)c1C
Plasmodium falciparum
  EC50: 6.5 µM
[2]
  IC50: 21 µM

## CCOC(=O)c1[nH]cc(Cc2ccc(C(F)(F)F)cc2)c1C
[1]
  IC50: > 100 µM
Plasmodium falciparum
  EC50: 0.06 µM
[2]
  IC50: 0.13 µM

## CCOC(=O)c1[nH]c(C)c(Cc2cccc(OCC)c2)c1C
[1]
  IC50: > 100 µM
Plasmodium falciparum
  EC50: 0.53 µM
[2]
  IC50: 0.83 µM

## CCOC(=O)c1[nH]cc(Cc2ccc(C(F)(F)F)cc2Cl)c1C
[1]
  IC50: > 100 µM
Plasmodium falciparum
  EC50: 0.029 µM
[2]
  IC50: 0.042 µM

## Cc1c(Cc2ccc(C(F)(F)F)nc2)c[nH]c1C(=O)NC(C)C
[1]
  IC50: > 100 µM
Plasmodium falciparum
  EC50: 0.013 µM
[2]
  IC50: 0.08 µM

## CCOC(=O)c1[nH]cc(Cc2ccc(C(F)(F)F)cc2F)c1C
[1]
  IC50: > 100 µM
Plasmodium falciparum
  EC50: 0.028 µM
[2]
  IC50: 0.035 µM

## CCOC(=O)c1[nH]cc(Cc2c(F)cc(C(F)(F)F)cc2F)c1C
Plasmodium falciparum
  EC50: > 10 µM
[2]
  IC50: > 30 µM

## CCOC(=O)c1[nH]cc(Cc2ccc(C(F)(F)F)cc2OC)c1C
Plasmodium falciparum
  EC50: 0.81 µM
[2]
  IC50: 1.1 µM

## Cc1[nH]c(C(=O)NC2CCNCC2)cc1Cc1ccc(C(F)(F)F)nc1
Plasmodium falciparum
  EC50: > 10 µM
[2]
  IC50: > 100 µM

## Cc1c(Cc2ccc(C(F)(F)F)nc2)c[nH]c1C(=O)NC(C)(C)C
[1]
  IC50: > 100 µM
Plasmodium falciparum
  EC50: 0.051 µM
[2]
  IC50: 0.11 µM

## Cc1c(Cc2ccc(C(F)(F)F)nc2)c[nH]c1C(=O)NC1(C(F)(F)F)CC1
Plasmodium falciparum
  EC50: 3.9 µM
[2]
  IC50: 9.3 µM

## Cc1[nH]c(C(=O)NC2CCC2)c(C)c1Cc1ccc(C(F)(F)F)cn1
[1]
  IC50: > 100 µM
Plasmodium falciparum
  EC50: 0.47 to 0.68 µM
[2]
  IC50: 0.41 µM

## Cc1[nH]c(C(=O)NC2CCN(C)CC2)cc1Cc1ccc(C(F)(F)F)nc1
Plasmodium falciparum
  EC50: > 10 µM
[2]
  IC50: > 100 µM

## CCOC(=O)c1[nH]cc(Cc2ccc(C#N)nc2)c1C
Plasmodium falciparum
  EC50: 0.2 µM
[2]
  IC50: 0.63 µM

## Cc1[nH]c(C(=O)NC(C)C)cc1Cc1ccc(C(F)(F)F)nc1
Plasmodium falciparum
  EC50: 1.9 µM
[2]
  IC50: 2.8 µM

## Cc1c(Cc2ccc(C(F)(F)F)nc2)c[nH]c1C(=O)NC1CC(F)(F)C1
Plasmodium falciparum
  EC50: 1.3 µM
[2]
  IC50: 3.6 µM

## O=C(NC1CC1)c1[nH]cc(Cc2ccc(C(F)(F)F)nc2)c1CO
Plasmodium falciparum
  EC50: 1.2 µM
[2]
  IC50: 4.3 µM

## Cc1[nH]c(C(=O)N(C)C)c(C)c1Cc1ccc(C(F)(F)F)nc1
Plasmodium falciparum
  EC50: > 10 µM
[2]
  IC50: > 30 µM

## CCOC(=O)c1c(C)c(Cc2ccc(C(F)(F)F)cc2)c(C)n1C
[2]
  IC50: > 100 µM

## Cc1c(Cc2ccc(C(F)(F)F)nc2)c[nH]c1C(=O)NC1CC(F)C1 (stereo not drawn)
Plasmodium falciparum
  EC50: 0.17 µM
[2]
  IC50: 0.32 µM

## Cc1[nH]c(C(=O)NC2CC2)c(C)c1Cc1ccc(C(F)(F)F)cn1
Plasmodium falciparum
  EC50: 0.34 µM
[2]
  IC50: 0.44 µM

## Cc1[nH]c(C(=O)O)c(C)c1Cc1ccc(C(F)(F)F)cc1
Plasmodium falciparum
  EC50: > 10 µM

## Cc1c(Cc2c(F)cc(C(F)(F)F)cc2F)c[nH]c1C(=O)NC1CC1
Plasmodium falciparum
  EC50: 0.42 µM
[2]
  IC50: 1.2 µM

## Cc1[nH]c(C(=O)NC2CNC2)cc1Cc1ccc(C(F)(F)F)nc1
Plasmodium falciparum
  EC50: > 20 µM
[2]
  IC50: > 100 µM

## Cc1c(C(=O)NC2CC2)[nH]c(C(F)(F)F)c1Cc1ccc(C(F)(F)F)nc1
Plasmodium falciparum
  EC50: 0.77 µM
[2]
  IC50: 1.6 µM

## Cc1[nH]c(C(=O)NC2CN(C)C2)cc1Cc1ccc(C(F)(F)F)nc1
Plasmodium falciparum
  EC50: > 20 µM
[2]
  IC50: > 100 µM

From ChEMBL document CHEMBL4602703, “Lead Optimization of a Pyrrole-Based Dihydroorotate Dehydrogenase Inhibitor Series for the Treatment of Malaria” (J Med Chem, 2020)
